{"source": "patent US10525139B2", "about": "“Folate-conjugated molecules for delivery of toxic small molecule inhibitors to cancer cells and methods of use” (priority 2014, dated 2020)", "key": {"NOTCH1 [1]": {"test_system": "NOTCH1", "experiment": "NOTCH1 processing and activation by western blot (FL-N1, TM-N1, ICN1)", "format": "cell-based, human", "excerpt": "(§1) We previously described that the SERCA inhibitors thapsigargin and cyclopiazonic acid impair NOTCH1 maturation leading to an accumulation of full-length, unprocessed polypeptides in the endoplasmic reticulum/Golgi subcellular compartment. An immediate consequence of SERCA inhibition is a decrement in NOTCH1 protein display on the surface of T-ALL cells. […] To further support the hypothesis that Thap-OH impairs mutant NOTCH1 maturation, we evaluated levels of full-length, transmembrane and activated NOTCH1 (ICN1) by WB. Lysates from T-ALL cell lines treated with 1 μM Thap-OH were immunoblotted with an antibody specific for the cytoplasmic portion of NOTCH1 that recognizes both unprocessed NOTCH1 (FL-N1) (˜270 kDa) and the furin-processed transmembrane subunit (TM-N1) (˜110 kDa).\nBoth Folate-Thap (JQ-FT) and Thap-OH were tested in T-ALL cell lines with 24 h treatment. […] Lysates were prepared after treatment with indicated doses of thapsigargin, JQ-FT or Thap-OH for 24 hr. The blot shown was stained with an antibody against the C-terminus of NOTCH1 that recognizes both the furin-processed NOTCH1 transmembrane subunit (TM) and the unprocessed NOTCH1 precursor (FL) (FIG. 2A). GAPDH was used as a loading control. Western blots were stained with antibodies specific for γ-secretase-cleaved NOTCH 1 ([…], Cell Signaling, Beverly, Mass., USA), or the C-terminus of NOTCH1 (SC-6014 (C-20) Santa Cruz Biotechnology, Santa Cruz, Calif., USA). Control stains were carried out with antibodies specific for GAPDH (137179, Santa Cruz Biotechnology). Blots were developed with anti-rabbit-HRP (NA9340V, Amersham, Pittsburgh, Pa., USA) or anti-mouse-HRP (NA9340V or NA9310V, Amersham). Staining was quantified using ImageQuant TI V 7.0 (GE Health Care, Piscataway, N.J., USA)."}, "NOTCH1 [2]": {"test_system": "NOTCH1", "experiment": "NOTCH1 cell surface staining by flow cytometry", "format": "cell-based, human", "details": "T-ALL cells; for NOTCH1 expression on the cell surface: 24 hours", "excerpt": "as §1\n(§2) The NOTCH loss was measured via flow cytometry. […] The recapitulation of the thapsigargin effect by JQ-FT is hypothesized to be due to the delivery strategy introduced by folate. […] Here cell growth was assessed using the Promega Cell-Titer Glo ATP-based assay (Promega, Madison, Wis., USA). Luminescence was measured using a Fluostar Omega instrument (BMG-labtech, Ortenberg, Germany)."}, "SERCA3": {"molecular_target": "T1, SERCA3 (Homo sapiens, UniProt Q93084)", "T1 construct": "Lysates from T-ALL cells (ALL/SIL) were co-treated with the indicated concentrations of biotinylated thapsigargin or Thap-OH; endogenous in cells; host or cells: ALL/SIL T-ALL cells (lysate)", "T1 sequence (Q93084 whole entry)": "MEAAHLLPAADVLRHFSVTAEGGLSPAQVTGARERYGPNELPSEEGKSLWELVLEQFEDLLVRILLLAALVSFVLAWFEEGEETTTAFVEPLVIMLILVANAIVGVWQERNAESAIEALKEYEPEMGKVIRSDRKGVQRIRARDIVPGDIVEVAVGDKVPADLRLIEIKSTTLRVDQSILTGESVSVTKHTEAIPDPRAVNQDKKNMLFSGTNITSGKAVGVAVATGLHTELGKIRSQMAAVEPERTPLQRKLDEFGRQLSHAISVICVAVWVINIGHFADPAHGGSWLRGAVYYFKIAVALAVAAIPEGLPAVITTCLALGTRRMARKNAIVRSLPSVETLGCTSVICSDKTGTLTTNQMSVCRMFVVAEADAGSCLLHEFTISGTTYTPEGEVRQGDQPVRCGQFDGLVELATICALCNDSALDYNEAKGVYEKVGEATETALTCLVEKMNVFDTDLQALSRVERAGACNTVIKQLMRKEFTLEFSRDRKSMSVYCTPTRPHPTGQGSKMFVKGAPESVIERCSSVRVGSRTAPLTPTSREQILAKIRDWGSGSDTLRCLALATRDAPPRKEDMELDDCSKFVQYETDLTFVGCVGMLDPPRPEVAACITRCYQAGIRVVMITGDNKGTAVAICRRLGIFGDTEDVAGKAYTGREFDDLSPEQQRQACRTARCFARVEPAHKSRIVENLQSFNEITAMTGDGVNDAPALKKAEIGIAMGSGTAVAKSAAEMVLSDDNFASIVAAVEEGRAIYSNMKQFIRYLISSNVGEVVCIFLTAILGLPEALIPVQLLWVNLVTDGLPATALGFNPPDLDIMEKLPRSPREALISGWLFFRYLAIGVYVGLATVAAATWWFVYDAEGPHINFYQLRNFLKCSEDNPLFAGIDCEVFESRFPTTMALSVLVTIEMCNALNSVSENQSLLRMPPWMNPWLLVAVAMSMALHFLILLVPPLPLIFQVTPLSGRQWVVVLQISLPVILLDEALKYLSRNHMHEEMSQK", "experiment": "Competitive pull-down with Thap-Biotin in T-ALL lysates, immunoblot", "format": "binding", "details": "ALL/SIL lysates, increasing concentrations of free Thap-OH", "protocol": "(§3) Lysates from T-ALL cells (ALL/SIL) were co-treated with the indicated concentrations of biotinylated thapsigargin or Thap-OH for 6 hours and subjected to streptavidin pulldown for 24 hours. The immunoblot was stained with SERCA2 and SERCA3 antibodies. […] Statistical significance for mutated vs WT (*P≤:0.05, **P≤0.01) was determined by one-way ANOVA with Bonferroni's correction for multiple comparison testing. […] NOTCH1 (N1) was detected with an antibody against the C-terminus of NOTCH1 that recognizes the […] NOTCH1 transmembrane subunit (TM) and the unprocessed NOTCH1 precursor (FL). GAPDH was used as loading control. […] Immunoblot was stained with an antibody against FR2. Vinculin was used as a loading control.\n(§4) To test the hypothesis that Thap-OH targets SERCA in T-ALL cells, we first performed a competitive pull-down assay in which protein lysates were treated with a novel biotinylated derivative of thapsigargin (Thap-Biotin), alone or in the presence of increasing concentrations of free, competitive Thap-OH."}, "SERCA2": {"molecular_target": "T2, SERCA2 (Homo sapiens, UniProt P16615)", "T2 construct": "Lysates from T-ALL cells (ALL/SIL) were co-treated with the indicated concentrations of biotinylated thapsigargin or Thap-OH; endogenous in cells; host or cells: ALL/SIL T-ALL cells (lysate)", "T2 sequence (P16615 whole entry)": "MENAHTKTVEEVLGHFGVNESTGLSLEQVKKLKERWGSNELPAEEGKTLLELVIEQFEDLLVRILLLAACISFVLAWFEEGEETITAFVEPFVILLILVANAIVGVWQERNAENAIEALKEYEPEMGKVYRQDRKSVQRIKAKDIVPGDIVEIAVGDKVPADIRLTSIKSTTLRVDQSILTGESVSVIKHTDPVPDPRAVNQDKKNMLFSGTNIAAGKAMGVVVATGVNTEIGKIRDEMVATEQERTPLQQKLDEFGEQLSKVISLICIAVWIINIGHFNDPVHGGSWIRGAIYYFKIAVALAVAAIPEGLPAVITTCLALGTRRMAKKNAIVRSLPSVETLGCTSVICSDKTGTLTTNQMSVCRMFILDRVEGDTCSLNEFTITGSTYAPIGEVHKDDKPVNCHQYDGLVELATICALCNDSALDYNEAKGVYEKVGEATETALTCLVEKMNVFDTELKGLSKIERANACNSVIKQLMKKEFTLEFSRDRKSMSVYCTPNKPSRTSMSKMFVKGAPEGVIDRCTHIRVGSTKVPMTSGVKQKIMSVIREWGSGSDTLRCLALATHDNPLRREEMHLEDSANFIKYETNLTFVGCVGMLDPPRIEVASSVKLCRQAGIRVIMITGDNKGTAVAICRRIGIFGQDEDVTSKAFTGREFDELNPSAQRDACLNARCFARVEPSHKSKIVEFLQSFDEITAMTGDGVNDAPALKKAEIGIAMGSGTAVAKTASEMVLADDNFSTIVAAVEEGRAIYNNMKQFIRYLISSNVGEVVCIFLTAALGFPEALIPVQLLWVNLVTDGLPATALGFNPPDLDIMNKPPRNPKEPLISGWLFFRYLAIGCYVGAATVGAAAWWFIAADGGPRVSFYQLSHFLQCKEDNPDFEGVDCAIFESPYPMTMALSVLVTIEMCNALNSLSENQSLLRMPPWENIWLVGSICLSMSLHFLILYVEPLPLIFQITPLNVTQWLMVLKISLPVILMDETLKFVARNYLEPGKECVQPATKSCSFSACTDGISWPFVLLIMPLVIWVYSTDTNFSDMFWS", "experiment": "Competitive pull-down with Thap-Biotin in T-ALL lysates, immunoblot", "format": "binding", "details": "ALL/SIL lysates, increasing concentrations of free Thap-OH", "protocol": "as §3, §4"}, "[3]": {"experiment": "LCMS analysis of cell lysate and media", "format": "in vitro ADME", "details": "only after cells were treated with FT", "protocol": "In order to validate the delivery of the Thap-OH, LCMS analysis of the cell lysate and the media was used to detect the presence of both Folate-Thap (FT) and Thap-OH. […] To directly visualize the folate delivery of a small molecule, folic acid derivatives with appended fluorophores were designed. Both Folate-FITC, suitable for flow cytometry studies, and Folate-TMARA, suitable for high-throughput fluorescence plate readers, were evaluated in vitro to determine the delivery mechanism."}, "T-ALL cell lines [4]": {"test_system": "T-ALL cell lines", "experiment": "T-ALL cell viability / growth (ATP content, Cell-Titer Glo)", "format": "cell-based, human", "details": "72 hours", "protocol": "Thus, cell lines carrying NOTCH1 alleles with HD domain, mutations were more sensitive to Thap-OH than cells with WT NOTCH1 alleles.\nAs a further test of the idea that JQ-FT acts by preventing NOTCH1 activation in a manner similar to thapsigargin, the NOTCH1-dependent T-ALL cell lines RPMI-8402 were transduced with empty MigRI vector or with ICN1, which lies downstream of the γ-secretase cleavage step in Notch activation. Viral supernatant production and retroviral infections were performed as described for MigRI retroviral vectors (Aster, J. C., et al. “Essential roles for ankyrin repeat and transactivation domains in induction of T-cell leukemia by NOTCH1.” Mol. Cell. Biol. 2000; 20:7505-7515). Transduction efficiency for MigRI was monitored by assessing GFP expression with a FACScan flow cytometer (BD, Franklin Lakes, N.J., USA) (Aster et al., Mol. Cell. Biol. 2000; 20:7505-7515). After viral infection, GFP-positive cells were sorted by flow cytometry with a FACSAria II (BD, Franklin Lakes, N.J., USA). […] Therefore, JQ-FT can recapitulate the Thapsigargin effect with the delivery mechanism of folate.\nas §2\nThe effects of JQ-FT in a panel of T-ALL cell lines that contain activating mutations in the HD domain of NOTCH1 and/or protein stabilizing deletions within the PEST degradation domain."}, "FR2": {"test_system": "FR2", "experiment": "FR2 expression by western blot after Thap-OH", "format": "cell-based, human", "details": "T-ALL cell lines, increasing concentrations of Thap-OH, 24 hours", "protocol": "Thapsigargin is a known inducer of the unfolded protein response (UPR). As such, its derivatives may trigger a cellular response that affects the stable expression or trafficking of folate receptors. To exclude that FR2 is a target of UPR, we treated T-ALL cell lines with increasing concentrations of Thap-OH for 24 hours."}, "T-ALL cell lines [5]": {"test_system": "T-ALL cell lines", "experiment": "Uptake of fluorescent folate probes by flow cytometry in T-ALL cells", "format": "cell-based, human", "excerpt": "To assess functional engagement of the folate receptor on T-ALL cells, we generated fluorescence-ragged folic acid probes. FL-TAMRA and FL-FITC, as tool compounds (FIG. 7, panel c). […] Taken together, these observations indicate that functional FR2 expression is increased in T-ALL compared to normal cells, further supporting a rationale for folate-mediated delivery in leukemia.\nTo explore the mechanism of binding and delivery of folate-conjugates in T-ALL, we performed competition and temperature sensitivity studies of the FL-FITC probe. The T-ALL cell Sine RPMI 8402 was engineered to overexpress either FR1 or FR2 and was then treated with increasing concentrations of FL-FITC. […] We next addressed whether folic acid could compete with the FL-FITC probe for uptake. T-ALL cells were grown in medium depleted of folic acid for 48 hours, treated with FL-FITC (1 or 10 μM), and assessed by flow cytometry. […]\nIn order to validate the delivery of the Thap-OH, LCMS analysis of the cell lysate and the media was used to detect the presence of both Folate-Thap (FT) and Thap-OH. […] Both Folate-FITC, suitable for flow cytometry studies, and Folate-TMARA, suitable for high-throughput fluorescence plate readers, were evaluated in vitro to determine the delivery mechanism."}}, "note": "“Also recorded” adds a separate entry of the source."}
{"compound": "C/C=C(/C)C(=O)O[C@H]1C(C)=C2[C@H]([C@@H]1OC(=O)CCCCCCC)[C@@](C)(OC(C)=O)C[C@H](O)[C@@]1(O)[C@H]2OC(=O)[C@@]1(C)O", "note": "[Thap-OH, 8-O-debutanoylthapsigargin]", "values": [{"measurement": "furin-processed transmembrane NOTCH1 subunit (TM-N1) level", "setting": "NOTCH1 [1]; T-ALL cell lines with HD mutations, 24 h, Thap-OH at 1 μM", "value": "reduced the levels of the furin-processed transmembrane NOTCH1 subunit"}, {"measurement": "ICN1 level", "setting": "NOTCH1 [1]; T-ALL cell lines, 24 h", "value": "decreased ICN1 levels"}, {"measurement": "unprocessed full-length NOTCH1 (FL-N1) level", "setting": "NOTCH1 [1]; T-ALL cell lines, 24 h", "value": "not the unprocessed full-length NOTCH1 precursor"}, {"measurement": "activity on NOTCH1 processing relative to JQ-FT", "setting": "NOTCH1 [1]; T-ALL cell lines, 24 h treatment", "value": "much lower activity"}, {"measurement": "NOTCH1 maturation in NOTCH1 WT cell lines", "setting": "NOTCH1 [1]; WT cell lines (Loucy, MOLT16), concentrations tested", "value": "no effect on NOTCH1 maturation in the WT cell lines"}, {"measurement": "effect on cell surface NOTCH1 compared with thapsigargin", "setting": "NOTCH1 [2]", "value": "less potent than the natural product; also recorded: reduced effect"}, {"measurement": "NOTCH1 expression on the cell surface", "setting": "NOTCH1 [2]", "value": "concentration-dependent reduction in NOTCH1 expression on the cell surface; also recorded: show NOTCH loss"}, {"measurement": "competition with biotinylated thapsigargin for SERCA3", "setting": "SERCA3", "value": "competed off biotinylated thapsigargin"}, {"measurement": "competition with biotinylated thapsigargin for SERCA2", "setting": "SERCA2", "value": "competed off biotinylated thapsigargin"}, {"measurement": "detection of released Thap-OH in cell lysate", "setting": "[3]", "value": "detected in cell lysate"}, {"measurement": "T-ALL cell viability", "setting": "T-ALL cell lines [4]; Thap-OH, dose-ranging ATP content assays", "value": "decrease in T-ALL cell viability"}, {"measurement": "sensitivity of NOTCH1 mutant versus WT T-ALL cells", "setting": "T-ALL cell lines [4]; mutated (ALL/SIL, DND41, PF382, RPMI 8402) vs WT (Loucy, MOLT16, SUPT11)", "value": "mutant T-ALL cells were more sensitive to the effects of Thap-OH than NOTCH1 WT cells"}, {"measurement": "FR2 expression", "setting": "FR2", "value": "No change in FR2 expression"}]}
{"compound": "CCCCC[C@@H](O)[C@H]1C(=O)O[C@H](C)[C@@H](O)/C=C/C=C/C=C/C=C/C=C(\\C)[C@@H](O)C[C@H](O)C[C@H](O)C[C@H](O)C[C@H](O)C[C@H](O)C[C@@H]1O", "note": "[filipin]", "values": [{"measurement": "mean percentage reduction of FITC fluorescence signal", "setting": "T-ALL cell lines [5]; four T-ALL cell lines pretreated with 10 μM filipin, 10 μM FL-FITC", "value": "38.9±2.5", "unit": "percentage"}]}
{"compound": "C/C=C(/C)C(=O)O[C@H]1C(C)=C2[C@H]([C@@H]1OC(=O)CCCCCCC)[C@@](C)(OC(C)=O)C[C@H](OC(=O)CCC)[C@@]1(O)[C@H]2OC(=O)[C@@]1(C)O", "note": "[thapsigargin, Thapsigargin, reference compound]", "values": [{"measurement": "NOTCH1 expression on the cell surface", "setting": "NOTCH1 [2]", "value": "concentration-dependent reduction in NOTCH1 expression on the cell surface"}]}
{"compound": "Nc1nc2ncc(CNc3ccc(C(=O)N[C@@H](CCC(=O)O)C(=O)O)cc3)nc2c(=O)[nH]1", "note": "[folic acid]", "values": [{"measurement": "competition of free folic acid with folate derivatives for uptake", "setting": "T-ALL cell lines [5]; free folic acid added to T-ALL culture", "value": "competed away the folate derivatives; also recorded: competes with folate-FITC"}]}
